Measurements as given in PubChem BioAssay (NCI).
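Cells were grown in 96-well plates and exposed to each compound for 48 hours at five concentrations; endpoints were interpolated linearly between bracketing concentrations, or set to the highest concentration if not reached. At the GI50, growth is halved. TGI: total growth inhibition.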

Key:
Experiment in all cases: NCI anticancer screen, dose series, 48 h
U251 CNS = tested on: U251 CNS
A549 NSCLC = tested on: A549 NSCLC
IGROV1 ovarian = tested on: IGROV1 ovarian
SF-268 CNS = tested on: SF-268 CNS
NCI/ADR-RES ovarian = tested on: NCI/ADR-RES ovarian
SK-MEL-28 melanoma = tested on: SK-MEL-28 melanoma
EKVX NSCLC = tested on: EKVX NSCLC
OVCAR-8 ovarian = tested on: OVCAR-8 ovarian
M14 melanoma = tested on: M14 melanoma
CCRF-CEM leukemia = tested on: CCRF-CEM leukemia

Compound | TGI (U251 CNS) [µM] | TGI (A549 NSCLC) [µM] | TGI (IGROV1 ovarian) [µM] | TGI (SF-268 CNS) [µM] | TGI (NCI/ADR-RES ovarian) [µM] | TGI (SK-MEL-28 melanoma) [µM] | TGI (EKVX NSCLC) [µM] | TGI (OVCAR-8 ovarian) [µM] | TGI (M14 melanoma) [µM] | TGI (CCRF-CEM leukemia) [µM] | GI50 (U251 CNS) [µM] | GI50 (A549 NSCLC) [µM] | GI50 (SF-268 CNS) [µM] | GI50 (CCRF-CEM leukemia) [µM] | GI50 (NCI/ADR-RES ovarian) [µM] | GI50 (SK-MEL-28 melanoma) [µM] | GI50 (EKVX NSCLC) [µM] | GI50 (OVCAR-8 ovarian) [µM] | GI50 (M14 melanoma) [µM] | GI50 (IGROV1 ovarian) [µM]
CN1CCc2nc(N)nc(-c3nc(N)nc4c3CN(C)CC4)c2C1 | > 100 | > 100 | > 100 | > 100 | > 100 | > 100 | > 100 | > 100 | > 100 | – | – | – | – | – | – | – | – | – | – | –
CCOC(=O)N[C@@H]1C(CC(=O)OC)O[C@H]2OC(C)(C)O[C@H]21 (stereo partly specified) | > 100 | > 100 | > 100 | > 100 | – | > 100 | – | – | > 100 | > 100 | – | – | – | – | – | – | – | – | – | –
CCCCNC1CCCCC[C@H]1O (stereo partly specified) | > 100 | > 100 | > 100 | > 100 | – | > 100 | > 100 | > 100 | > 100 | > 100 | – | – | – | – | – | – | – | – | – | –
CCOC(=O)/C(C)=C(/O)C(=O)OCC | > 100 | > 100 | > 100 | > 100 | – | > 100 | > 100 | > 100 | > 100 | > 100 | – | – | – | – | – | – | – | – | – | –
c1ccc(C2N3CCCCC3[C@@H]3c4[nH]c5ccccc5c4CCN23)nc1 (stereo partly specified) | > 100 | > 100 | > 100 | > 100 | – | > 100 | > 100 | > 100 | > 100 | > 100 | – | – | – | – | – | – | – | – | – | –
CC1(C)C(=O)/C(=C\c2cccnc2)C[C@]2(C)[C@H]3CC[C@@H]4[C@H]5[C@H](C(=O)/C=C/c6cccnc6)CC[C@]5(C(=O)O)CC[C@@]4(C)[C@]3(C)CC[C@@H]12 | 3.26 | 5.11 | – | 5.46 | > 100 | 4.39 | 4.92 | > 100 | 8.97 | 8.07 | 1.74 | 2.14 | 2.15 | 1.44 | 3.08 | 2.16 | 2.11 | 3.5 | 2.64 | –
C=C(C)CCN[Si](c1ccccc1)(c1ccccc1)C(C)(C)C | 30 | > 100 | 72 | 98 | – | 42.7 | 54.4 | 36 | 34.4 | 66.4 | – | – | – | – | – | – | – | – | – | –
C=CCCCCC/C=C\[C@@H](O)C#CC#C/C=C/CO | > 100 | > 100 | > 100 | > 100 | > 100 | > 100 | > 100 | 68.9 | > 100 | – | 38.7 | > 100 | 39 | – | > 100 | 0.867 | > 100 | 25.1 | > 100 | 23.5
Cc1nnc(NS(=O)(=O)c2ccc(N=Nc3cc(N=Nc4ccc(S(=O)(=O)Nc5nnc(C)s5)cc4)c4c(NC(=O)C(Cl)Cl)cccc4c3OC(=O)C(Cl)Cl)cc2)s1 (tested in a mixture with another compound) | > 100 | 60.2 | 97.5 | > 100 | – | 48.5 | 89.2 | 43.7 | 73.4 | > 100 | – | – | – | – | – | – | – | – | – | –
COC(=O)[C@@]12C(=O)C=CC(=O)C1C1C(=CC2C)OC2OC3(CCCCC3)OC21 (stereo partly specified) | 31.6 | 36.3 | 35.1 | 48.6 | – | 33.6 | 37.8 | 30.9 | 33.6 | 7.49 | – | – | – | – | – | – | – | – | – | –
CC(C)c1c(O)c(O)c2c(c1O)C(=O)C(O)=C1C(C)(C)CCC[C@@]12C | 11.1 | 14.3 | 13.9 | 20 | – | 17.7 | 11.5 | 10.2 | 19.3 | 7.43 | – | – | – | – | – | – | – | – | – | –
[N-]=[N+]=C1C(=O)NN=C1c1ccccc1 | > 100 | > 100 | > 100 | > 100 | – | > 100 | > 100 | > 100 | > 100 | > 100 | – | – | – | – | – | – | – | – | – | –
CC1=CC(C)(C)N=C2SC(c3ccc(N)cc3)=NN12 | > 100 | > 100 | > 100 | > 100 | – | > 100 | > 100 | > 100 | > 100 | > 72.4 | – | – | – | – | – | – | – | – | – | –
Cc1[nH]c(=O)nc2[nH][nH]c(=O)c12 | > 100 | > 100 | > 100 | > 100 | – | > 100 | > 100 | > 100 | > 100 | > 100 | – | – | – | – | – | – | – | – | – | –
CC(=O)C1Cn2c(nc3ccccc32)C[Se]1 (stereo unspecified) | 3.76 | 36.2 | 6.02 | 11.5 | – | 8.75 | 28.7 | 13.3 | 4.96 | > 100 | – | – | – | – | – | – | – | – | – | –
CCOC(=O)CCC(=O)C1c2cccc(O)c2C(=O)c2c(O)cc(C)cc21 (stereo unspecified) | 0.65 | 3.86 | 0.846 | – | – | 2.92 | 3.91 | 2.01 | 2.71 | 2.75 | – | – | – | – | – | – | – | – | – | –
COc1c(C(=O)/C=C/c2ccccc2)c(O)cc2occc12 | 16.1 | 29 | 11.4 | 13.7 | 6.32 | 20.7 | 25.6 | 12.5 | 25.7 | – | 4.39 | 8.62 | 4.05 | – | 2.42 | 7.03 | 12.5 | 3.62 | 8.89 | 3.51
CCOC(=O)C(=O)Nc1ccccc1CC | > 100 | > 100 | > 100 | > 100 | – | > 100 | > 100 | > 100 | > 100 | > 100 | – | – | – | – | – | – | – | – | – | –
COC(=O)Nc1nc2ccc(C3(c4ccc(F)cc4)OCCO3)cc2[nH]1 | > 100 | > 100 | > 100 | > 100 | > 35.4 | > 100 | – | > 100 | – | > 100 | 0.398 | 0.417 | 2.07 | 0.337 | 0.28 | 0.769 | – | 0.527 | – | 1.29
O=C(CCc1nc(=S)[nH][nH]1)Nc1ccccc1Cl | > 100 | > 100 | > 100 | > 100 | – | > 100 | > 100 | > 100 | > 100 | > 100 | – | – | – | – | – | – | – | – | – | –
